Experimental data as given in patent US11076594B2, “Pyrazolone compound or salt thereof, preparation method therefor, herbicide composition and use thereof” (QINGDAO KINGAGROOT CHEMICAL COMPOUNDS CO., LTD., priority 2015, dated 2021).

Assays:
Type in all cases: in vivo
crab grass = experiment: weed control effect in post-emergence stage (Table 1); parameters: key: Level 10: completely dead; Level 9: above 95% growth control rate; Level 8: above 90% growth control rate; Level 7: above 80% growth control rate; Level 6: above 70% growth control rate; Level 5: above 60% growth control rate; Level 4: above 50% growth control rate; Level 3: above 20% growth control rate; Level 2: 5%-20% growth control rate; Level 1: below 5% growth control rate; conditions: post-emergence spray at 4-5 leaf stage, 250 g/ha active ingredient with 450 kg/ha water, rated after 3 weeks in greenhouse
How it was run: (§1)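 Fresh-weight-based growth control rate was assessed 3 weeks after spraying. Test compound, dissolved in acetone, with tween 80 added and diluted in water, was sprayed onto greenhouse-grown, pot-cultured weeds and crop plants at 4-5 leaves, 2-3 weeks post-sowing.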

echinochloa [1] = experiment: as above; parameters: key: Level 10: completely dead; Level 9: above 95% growth control rate; Level 8: above 90% growth control rate; Level 7: above 80% growth control rate; Level 6: above 70% growth control rate; Level 5: above 60% growth control rate; Level 4: above 50% growth control rate; Level 3: above 20% growth control rate; Level 2: 5%-20% growth control rate; Level 1: below 5% growth control rate; conditions: post-emergence spray at 4-5 leaf stage, 250 g/ha active ingredient with 450 kg/ha water, rated after 3 weeks in greenhouse
How it was run: as §1

rorippa indica = experiment: as above; parameters: key: Level 10: completely dead; Level 9: above 95% growth control rate; Level 8: above 90% growth control rate; Level 7: above 80% growth control rate; Level 6: above 70% growth control rate; Level 5: above 60% growth control rate; Level 4: above 50% growth control rate; Level 3: above 20% growth control rate; Level 2: 5%-20% growth control rate; Level 1: below 5% growth control rate; conditions: post-emergence spray at 4-5 leaf stage, 250 g/ha active ingredient with 450 kg/ha water, rated after 3 weeks in greenhouse
How it was run: as §1

foxtail = experiment: as above; parameters: key: Level 10: completely dead; Level 9: above 95% growth control rate; Level 8: above 90% growth control rate; Level 7: above 80% growth control rate; Level 6: above 70% growth control rate; Level 5: above 60% growth control rate; Level 4: above 50% growth control rate; Level 3: above 20% growth control rate; Level 2: 5%-20% growth control rate; Level 1: below 5% growth control rate; conditions: post-emergence spray at 4-5 leaf stage, 250 g/ha active ingredient with 450 kg/ha water, rated after 3 weeks in greenhouse
How it was run: as §1

bidens bipinnata = experiment: as above; parameters: key: Level 10: completely dead; Level 9: above 95% growth control rate; Level 8: above 90% growth control rate; Level 7: above 80% growth control rate; Level 6: above 70% growth control rate; Level 5: above 60% growth control rate; Level 4: above 50% growth control rate; Level 3: above 20% growth control rate; Level 2: 5%-20% growth control rate; Level 1: below 5% growth control rate; conditions: post-emergence spray at 4-5 leaf stage, 250 g/ha active ingredient with 450 kg/ha water, rated after 3 weeks in greenhouse
How it was run: as §1

Indian mallow = experiment: as above; parameters: key: Level 10: completely dead; Level 9: above 95% growth control rate; Level 8: above 90% growth control rate; Level 7: above 80% growth control rate; Level 6: above 70% growth control rate; Level 5: above 60% growth control rate; Level 4: above 50% growth control rate; Level 3: above 20% growth control rate; Level 2: 5%-20% growth control rate; Level 1: below 5% growth control rate; conditions: post-emergence spray at 4-5 leaf stage, 250 g/ha active ingredient with 450 kg/ha water, rated after 3 weeks in greenhouse
How it was run: as §1

echinochloa [2] = experiment: weed control effect evaluation in rice field; parameters: key: Level 10: completely dead; Level 9: above 95% growth control rate; Level 8: above 90% growth control rate; Level 7: above 80% growth control rate; Level 6: above 70% growth control rate; Level 5: above 60% growth control rate; Level 4: above 50% growth control rate; Level 3: above 20% growth control rate; Level 2: 5%-20% growth control rate; Level 1: below 5% growth control rate; conditions: 125 g/ha ai; rice field pot; 14 days after treatment; resistant to pyrazosulfuron-ethyl
From the text: (§2) The activity level standard of harmful plant destruction (i.e. growth control rate) is as follows: Rice field soil was loaded into a 1/1,000,000 ha pot. The seeds of echinochloa, scirpus juncoides, bidens tripartite and sagittaria trifolia were sowed and gently covered with soil, then left to stand still in greenhouse in the state of 0.5-1 cm of water storage. The tuber of sagittaria trifolia was planted in the next day or 2 days later. It was kept at 3-4 cm of water storage thereafter. The weeds were treated by dripping the WP or SC water diluents prepared according to the common preparation method of the compounds of the present invention with pipette homogeneously to achieve specified effective amount when echinochloa, scirpus juncoides and bidens tripartite reached 0.5 leaf stage and sagittaria trifolia reached the time point of primary leaf stage. The fertility condition of echinochloa, scirpus juncoides, bidens tripartite and sagittaria trifolia 14 days after the treatment of the compound of the invention and the fertility condition of rice 21 days after the treatment of the compound of the invention respectively with the naked eye.

sagittaria trifolia = experiment: weed control effect evaluation in rice field; parameters: key: Level 10: completely dead; Level 9: above 95% growth control rate; Level 8: above 90% growth control rate; Level 7: above 80% growth control rate; Level 6: above 70% growth control rate; Level 5: above 60% growth control rate; Level 4: above 50% growth control rate; Level 3: above 20% growth control rate; Level 2: 5%-20% growth control rate; Level 1: below 5% growth control rate; conditions: 125 g/ha ai; rice field pot; 14 days after treatment; resistant to pyrazosulfuron-ethyl
From the text: as §2

scirpus juncoides = experiment: weed control effect evaluation in rice field; parameters: key: Level 10: completely dead; Level 9: above 95% growth control rate; Level 8: above 90% growth control rate; Level 7: above 80% growth control rate; Level 6: above 70% growth control rate; Level 5: above 60% growth control rate; Level 4: above 50% growth control rate; Level 3: above 20% growth control rate; Level 2: 5%-20% growth control rate; Level 1: below 5% growth control rate; conditions: 125 g/ha ai; rice field pot; 14 days after treatment; resistant to pyrazosulfuron-ethyl
From the text: as §2

bidens tripartite = experiment: weed control effect evaluation in rice field; parameters: key: Level 10: completely dead; Level 9: above 95% growth control rate; Level 8: above 90% growth control rate; Level 7: above 80% growth control rate; Level 6: above 70% growth control rate; Level 5: above 60% growth control rate; Level 4: above 50% growth control rate; Level 3: above 20% growth control rate; Level 2: 5%-20% growth control rate; Level 1: below 5% growth control rate; conditions: 125 g/ha ai; rice field pot; 14 days after treatment; resistant to pyrazosulfuron-ethyl
From the text: as §2

rice = experiment: post-emergence stage experiment, crop (Table 1); conditions: post-emergence spray at 4-5 leaf stage, 250 g/ha active ingredient with 450 kg/ha water, rated after 3 weeks in greenhouse
How it was run: as §1

rice (japonica rice) = experiment: transplanted rice safety evaluation; conditions: 125 g/ha ai; treated 5 days after transplantation; 21 days after treatment
Protocol: The activity level standard of harmful plant destruction (i.e. growth control rate) is as follows: In addition, the rice field soil that loaded into the 1/1,000,000 ha pot was leveled to keep water storage at 3-4 cm depth. The 3 leaf stage rice (japonica rice) was transplanted at 3 cm of transplanting depth the next day. The compound of the present invention was treated by the same way after 5 days of transplantation. The fertility condition of echinochloa, scirpus juncoides, bidens tripartite and sagittaria trifolia 14 days after the treatment of the compound of the invention and the fertility condition of rice 21 days after the treatment of the compound of the invention respectively with the naked eye.

wheat = experiment: post-emergence stage experiment, crop (Table 1); conditions: post-emergence spray at 4-5 leaf stage, 250 g/ha active ingredient with 450 kg/ha water, rated after 3 weeks in greenhouse
How it was run: as §1

corn = experiment: post-emergence stage experiment, crop (Table 1); conditions: post-emergence spray at 4-5 leaf stage, 250 g/ha active ingredient with 450 kg/ha water, rated after 3 weeks in greenhouse
How it was run: as §1

Compound | weed control effect, Crab grass (level) (crab grass) | weed control effect, Echinochloa (level) (echinochloa [1]) | weed control effect, Rorippa indica (level) (rorippa indica) | weed control effect, Green foxtail (level) (foxtail) | weed control effect, Bidens bipinnata (level) (bidens bipinnata) | weed control effect, Indian mallow (level) (Indian mallow) | Echinochloa weed control effect (activity level) (echinochloa [2]) | Sagittaria trifolia weed control effect (activity level) (sagittaria trifolia) | Scirpus juncoides weed control effect (activity level) (scirpus juncoides) | Bidens tripartite weed control effect (activity level) (bidens tripartite) | effect on crop, Rice (level) (rice) | Rice (activity level, transplanted rice safety) (rice (japonica rice)) | effect on crop, Wheat (level) (wheat) | effect on crop, Corn (level) (corn)
CCn1nc(C)c(C(=O)c2ccc(C(F)(F)F)c(-n3cccn3)c2Cl)c1O [Compound 128] | 1 (Level 1: below 5% growth control rate) | 10 | 7 (Level 7: above 80% growth control rate) | 10 | 6 (Level 6: above 70% growth control rate) | 3 (Level 3: above 20% growth control rate) | 10 | 8 (Level 8: above 90% growth control rate) | 10 | 6 (Level 6: above 70% growth control rate) | 5 (Level 5: above 60% growth control rate) | 1 (Level 1: below 5% growth control rate) | 0 | 0
CCOc1c(C(=O)Oc2c(C(=O)c3ccc(C(F)(F)F)c(-n4cccn4)c3Cl)cnn2C)cnn1C [Compound 065] | 8 (Level 8: above 90% growth control rate) | 7 (Level 7: above 80% growth control rate) | 9 (Level 9: above 95% growth control rate) | 10 | 7 (Level 7: above 80% growth control rate) | 9 (Level 9: above 95% growth control rate) | 9 (Level 9: above 95% growth control rate) | 9 (Level 9: above 95% growth control rate) | 9 (Level 9: above 95% growth control rate) | 8 (Level 8: above 90% growth control rate) | 3 (Level 3: above 20% growth control rate) | 3 (Level 3: above 20% growth control rate) | 3 (Level 3: above 20% growth control rate) | 9 (Level 9: above 95% growth control rate)
